The target in data set [1] is T1, FMS kinase (Homo sapiens, UniProt P07333).
T1 construct: purchased Reaction Biology Corp
Put plainly: Kinase HotSpot cell-free enzyme assay, FMS kinase. In kind it is biochemical. As to conditions: for IC50: 10-dose duplicate assay, mean ± SEM, starting with 81 µM, threefold serial dilution, read-out: IC50 against FMS kinase. The procedure: Reaction Biology Corp. Kinase HotSpot^SM service [http://www.reactionbiology.com] was utilised for screening of the target compounds as per the protocol reported in the literature.
Compounds 1a–r were tested in a 10-dose testing mode starting with 81 µM, threefold serial dilutions, against FMS kinase in a cell-free enzyme assay. […] This can be due to occupancy of a hydrophobic pocket with that additional benzoyl moiety and/or formation of additional hydrogen bond by the carbonyl oxygen.

T1 sequence (P07333 20-972): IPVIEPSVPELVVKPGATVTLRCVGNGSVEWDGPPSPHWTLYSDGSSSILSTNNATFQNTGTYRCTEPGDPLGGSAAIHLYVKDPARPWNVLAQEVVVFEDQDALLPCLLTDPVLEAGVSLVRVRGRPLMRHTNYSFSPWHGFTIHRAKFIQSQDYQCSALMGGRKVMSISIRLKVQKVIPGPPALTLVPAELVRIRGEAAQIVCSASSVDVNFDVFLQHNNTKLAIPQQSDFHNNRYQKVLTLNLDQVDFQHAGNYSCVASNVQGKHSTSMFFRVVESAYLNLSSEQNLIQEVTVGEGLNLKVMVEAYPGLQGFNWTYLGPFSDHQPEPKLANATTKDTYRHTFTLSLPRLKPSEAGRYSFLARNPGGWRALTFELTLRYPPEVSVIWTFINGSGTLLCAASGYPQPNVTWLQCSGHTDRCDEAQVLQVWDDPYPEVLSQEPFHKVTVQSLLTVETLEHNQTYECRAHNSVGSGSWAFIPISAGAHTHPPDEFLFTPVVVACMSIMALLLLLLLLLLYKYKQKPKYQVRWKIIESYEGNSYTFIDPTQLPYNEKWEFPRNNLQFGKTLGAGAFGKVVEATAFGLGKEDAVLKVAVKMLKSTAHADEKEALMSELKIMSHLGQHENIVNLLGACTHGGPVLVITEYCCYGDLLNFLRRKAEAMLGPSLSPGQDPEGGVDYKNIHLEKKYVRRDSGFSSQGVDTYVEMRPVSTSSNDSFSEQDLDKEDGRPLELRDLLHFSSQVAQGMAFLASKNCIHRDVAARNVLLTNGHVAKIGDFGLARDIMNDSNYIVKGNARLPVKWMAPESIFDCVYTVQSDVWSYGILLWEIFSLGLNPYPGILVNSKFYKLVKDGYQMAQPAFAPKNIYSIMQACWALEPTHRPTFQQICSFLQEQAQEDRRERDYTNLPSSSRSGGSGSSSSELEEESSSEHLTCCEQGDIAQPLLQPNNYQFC

Regarding `O=C(Nc1cccc(-n2ccc3c(NC(=O)c4ccccc4)nccc32)c1)c1ccc(Cl)c(Cl)c1` [Compound 1g], in data set [1], the IC50 (usually the midpoint of a concentration-inhibition curve) is 1270 ± 70 nM.

On to `O=C(Nc1ccc(-n2ccc3c(NC(=O)c4ccccc4)nccc32)cc1)c1cccc(C(F)(F)F)c1` [Compound 1h], for which, in data set [1], the half-maximal inhibitory concentration (IC50) worked out at 10800 ± 600 nM.

For `O=C(Nc1cccc(-n2ccc3c(NC(=O)c4ccccc4)nccc32)c1)Nc1ccc(Cl)c(C(F)(F)F)c1` [Compound 1d], the melting point (usually the temperature of the solid-liquid transition) was in the range of 143 to 145 °C. The IC50 in data set [1] was found to be 2470 ± 30 nM.

On to `Nc1nccc2c1ccn2-c1ccc(NC(=O)Nc2cc(C(F)(F)F)cc(C(F)(F)F)c2)cc1` [Compound 1m], for which the 50% inhibitory concentration (IC50) in data set [1] was 1450 ± 30 nM.

Consider `Nc1nccc2c1ccn2-c1ccc(NC(=O)Nc2ccc(Cl)c(C(F)(F)F)c2)cc1` [Compound 1l], for which the melting point is above 280 °C. Also, the IC50 in data set [1] was found to be 3200 ± 70 nM.

With `O=C(Nc1ccc(-n2ccc3c(NC(=O)c4ccccc4)nccc32)cc1)c1ccc(Cl)c(Cl)c1` [Compound 1f], the IC50 in data set [1] was above 81000 nM.

For the compound `O=C(Nc1cccc(-n2ccc3c(NC(=O)c4ccccc4)nccc32)c1)c1cccc(C(F)(F)F)c1` [Compound 1i], the melting point fell in the range of 142 to 144 °C. Besides, the IC50 in data set [1] is above 81000 nM.

Consider `Nc1nccc2c1ccn2-c1ccc(NC(=O)c2ccc(Cl)c(Cl)c2)cc1` [Compound 1n], for which the IC50 in data set [1] is above 81000 nM.

For `O=C(Nc1ccc(-n2ccc3c(NC(=O)c4ccccc4)nccc32)cc1)c1ccc(N2CCOCC2)c(C(F)(F)F)c1` [Compound 1j], in data set [1], the IC50 is 33100 ± 450 nM.

As to `Nc1nccc2c1ccn2-c1ccc(NC(=O)c2ccc(N3CCOCC3)c(C(F)(F)F)c2)cc1` [Compound 1p], the melting point was 253 to 256 °C (dec.). In addition, the IC50 in data set [1] was 100 ± 30 nM.

`O=C(Nc1ccc(-n2ccc3c(NC(=O)c4ccccc4)nccc32)cc1)Nc1cc(C(F)(F)F)cc(C(F)(F)F)c1` [Compound 1e] came in with a melting point above 280 °C. Further, in data set [1], the IC50 was determined as 60 ± 10 nM. Moreover, in data set [1] (ratio of IC50 values, more potent than lead compound KIST101029), the “Potency against FMS kinase relative to KIST101029” value stood at 1.6 times.

In turn, `Nc1nccc2c1ccn2-c1cccc(NC(=O)c2ccc(Cl)c(Cl)c2)c1` [Compound 1o] gave a melting point above 280 °C. The IC50 in data set [1] is 40700 ± 2400 nM.

Turning to `O=C(Nc1ccc(-n2ccc3c(NC(=O)c4ccccc4)nccc32)cc1)Nc1ccc(Cl)c(C(F)(F)F)c1` [Compound 1c], the concentration for half-maximal inhibition (IC50) in data set [1] is 390 ± 20 nM.

The record behind these values is article PMC6084503, “Pyrrolo[3,2-c]pyridine derivatives with potential inhibitory effect against FMS kinase: in vitro biological studies” (Journal of Enzyme Inhibition and Medicinal Chemistry, 2018).
